In patent US20240228535A1 (priority 2022, published 2024):

These compounds were tested against SARS2 coronavirus 3CL protease (Severe acute respiratory syndrome coronavirus 2, UniProt P0DTD1) (assay: biochemical). Conditions: 5 nM enzyme, 30 min pre-incubation with compound, 15 μM peptide substrate, 4 h at room temperature; read-out: FRET Potency (nM); IC50 values in the SARS2 3CLPro FRET assay.

SMILES	IC50 [nM]
C[C@@H]1C[C@@H](C[C@H](NC(=O)c2cc(Cl)ccc2NC(=O)[C@@H]2CN(C)C(=O)O2)C(=O)C(=O)NC2CC2)C(=O)N1 [Example 204, (5S)-N-[4-chloro-2-[[(1S)-3-(cyclopropylamino)-1-[[(3S,5R)-5-methyl-2-oxo-pyrrolidin-3-yl]methyl]-2,3-dioxo-propyl]carbamoyl]phenyl]-3-methyl-2-oxo-oxazolidine-5-carboxamide]	4.7
CNC(=O)C(=O)[C@H](C[C@@H]1C[C@@H](C)NC1=O)NC(=O)c1cc(OC(F)F)cnc1NC(=O)c1cccc(C(F)(F)F)c1 [Example 18, 5-(difluoromethoxy)-N-[(1S)-3-(methylamino)-1-[[(3S,5R)-5-methyl-2-oxo-pyrrolidin-3-yl]methyl]-2,3-dioxo-propyl]-2-[[3-(trifluoromethyl)benzoyl]amino]pyridine-3-carboxamide]	31.1
C[C@@H]1C[C@@H](C[C@H](NC(=O)c2cc(Cl)ccc2NC(=O)C2CC(F)(F)C2)C(=O)C(=O)NC2CC2)C(=O)N1 [Example 59, 5-chloro-N-[(1S)-3-(cyclopropylamino)-1-[[(3S,5R)-5-methyl-2-oxo-pyrrolidin-3-yl]methyl]-2,3-dioxo-propyl]-2-[(3,3-difluorocyclobutanecarbonyl)amino]benzamide]	8
C[C@@H]1C[C@@H](C[C@H](NC(=O)c2cc(Cl)cc(Cl)c2NC(=O)C23CC(F)(C2)C3)C(=O)C(=O)NC2CC2)C(=O)N1 [Example 80, N-[2,4-dichloro-6-[[(1S)-3-(cyclopropylamino)-1-[[(3S,5R)-5-methyl-2-oxo-pyrrolidin-3-yl]methyl]-2,3-dioxo-propyl]carbamoyl]phenyl]-3-fluoro-bicyclo[1.1.1]pentane-1-carboxamide]	21.6
CNC(=O)C(=O)[C@H](C[C@@H]1C[C@@H](C)NC1=O)NC(=O)c1cc(Cl)ccc1NC(=O)OC(C)(C)C [Example 153, tert-butyl N-[4-chloro-2-[[(1S)-3-(methylamino)-1-[[(3S,5R)-5-methyl-2-oxo-pyrrolidin-3-yl]methyl]-2,3-dioxo-propyl]carbamoyl]phenyl] carbamate]	39.8
C[C@@H]1C[C@@H](C[C@H](NC(=O)c2cc(Cl)ccc2NC(=O)C23CC(F)(C2)C3)C(=O)C(=O)NC2CC2)C(=O)N1 [Example 54, N-[4-chloro-2-[[(1S)-3-(cyclopropylamino)-1-[[(3S,5R)-5-methyl-2-oxo-pyrrolidin-3-yl]methyl]-2,3-dioxo-propyl]carbamoyl]phenyl]-3-fluoro-bicyclo[1.1.1]pentane-1-carboxamide]	8.2
CNC(=O)C(=O)[C@H](C[C@@H]1C[C@@H](C)NC1=O)NC(=O)c1cc(Cl)ccc1NC(=O)C(C)c1ccc(C(F)(F)F)nc1 (single isomer, unassigned) [Example 230]	7
COC(=O)Nc1ccc(Cl)cc1C(=O)N[C@@H](C[C@@H]1CCNC1=O)C(=O)C(=O)NC1CC1 [Example 123]	7.3
CNC(=O)C(=O)[C@H](C[C@@H]1C[C@@H](C)NC1=O)NC(=O)c1cc(Cl)ccc1NC(=O)OC1CCC(F)(F)C1 (stereo partly drawn) [Example 200, (3,3-difluorocyclopentyl) N-[4-chloro-2-[[(1S)-3-(methylamino)-1-[[(3S,5R)-5-methyl-2-oxo-pyrrolidin-3-yl]methyl]-2,3-dioxo-propyl]carbamoyl]phenyl] carbamate]	4.6
C[C@@H]1C[C@@H](C[C@H](NC(=O)c2cc(C(F)F)ccc2NC(=O)c2ccnc(C(F)(F)F)c2)C(=O)C(=O)NC2CC2)C(=O)N1 [Example 232, N-[2-[[(1S)-3-(cyclopropylamino)-1-[[(3S,5R)-5-methyl-2-oxo-pyrrolidin-3-yl]methyl]-2,3-dioxo-propyl]carbamoyl]-4-(difluoromethyl)phenyl]-2-(trifluoromethyl)pyridine-4-carboxamide]	10.4
CNC(=O)C(=O)[C@H](C[C@@H]1C[C@@H](C)NC1=O)NC(=O)c1cc(F)c(F)cc1NC(=O)OC [Example 120, methyl N-[4,5-difluoro-2-[[(1S)-3-(methylamino)-1-[[(3S,5R)-5-methyl-2-oxo-pyrrolidin-3-yl]methyl]-2,3-dioxo-propyl]carbamoyl]phenyl] carbamate]	11.1
C[C@@H]1C[C@@H](C[C@H](NC(=O)c2cc(Cl)ccc2NC(=O)C2CC2)C(=O)C(=O)NC2CC2)C(=O)N1 [Example 145, 5-chloro-2-(cyclopropanecarbonylamino)-N-[(1S)-3-(cyclopropylamino)-1-[[(3S,5R)-5-methyl-2-oxo-pyrrolidin-3-yl]methyl]-2,3-dioxo-propyl]benzamide]	26.8
CNC(=O)C(=O)[C@H](C[C@@H]1C[C@@H](C)NC1=O)NC(=O)c1cc(Cl)ccc1NC(=O)C(C)c1ccnc(C(F)(F)F)c1 (stereo partly drawn) [Example 227, 5-chloro-N-[(1S)-3-(methylamino)-1-[[(3S,5R)-5-methyl-2-oxo-pyrrolidin-3-yl]methyl]-2,3-dioxo-propyl]-2-[2-[2-(trifluoromethyl)-4-pyridyl]propanoylamino] benzamide]	7.4
CNC(=O)C(=O)[C@H](C[C@@H]1C[C@@H](C)NC1=O)NC(=O)c1cc(Cl)ccc1NC(=O)[C@@H]1CN(C)C(=O)O1 [Example 182, (5S)-N-[4-chloro-2-[[(1S)-3-(methylamino)-1-[[(3S,5R)-5-methyl-2-oxo-pyrrolidin-3-yl]methyl]-2,3-dioxo-propyl]carbamoyl]phenyl]-3-methyl-2-oxo-oxazolidine-5-carboxamide]	6.7
CNC(=O)C(=O)[C@H](C[C@@H]1C[C@@H](C)NC1=O)NC(=O)c1cc(Cl)ccc1NC(=O)OCC1CC1(F)F (stereo partly drawn) [Example 187, (2,2-difluorocyclopropyl)methyl N-[4-chloro-2-[(1S)-3-(methylamino)-1-[[(3S,5R)-5-methyl-2-oxo-pyrrolidin-3-yl]methyl]-2,3-dioxo-propyl]carbamoyl]phenyl] carbamate]	2.5
C[C@@H]1C[C@@H](C[C@H](NC(=O)c2cc(F)ccc2NC(=O)C2(C(F)(F)F)CC2)C(=O)C(=O)NC2CC2)C(=O)N1 [Example 25, N-[(1S)-3-(cyclopropylamino)-1-[[(3S,5R)-5-methyl-2-oxo-pyrrolidin-3-yl]methyl]-2,3-dioxo-propyl]-5-fluoro-2-[[1-(trifluoromethyl)cyclopropane-carbonyl]amino]benzamide]	18.1
C[C@@H]1C[C@@H](C[C@H](NC(=O)c2cc(Cl)cnc2NC(=O)C2(C(F)(F)F)CC2)C(=O)C(=O)NC2CC2)C(=O)N1 [Example 22, 5-chloro-N-[(1S)-3-(cyclopropylamino)-1-[[(3S,5R)-5-methyl-2-oxo-pyrrolidin-3-yl]methyl]-2,3-dioxo-propyl]-2-[[1-(trifluoromethyl)cyclopropane-carbonyl]amino]pyridine-3-carboxamide]	22.6
CO[C@H](C)C(=O)Nc1ccc(Cl)cc1C(=O)N[C@@H](C[C@@H]1C[C@@H](C)NC1=O)C(=O)C(=O)NC1CC1 [Example 164, 5-chloro-N-[(1S)-3-(cyclopropylamino)-1-[[(3S,5R)-5-methyl-2-oxo-pyrrolidin-3-yl]methyl]-2,3-dioxo-propyl]-2-[[(2R)-2-methoxypropanoyl]amino] benzamide]	4.8
